Some test systems named below: BT-549 breast; CAKI-1 renal; EKVX NSCLC; HCT-116 colon; LOX IMVI melanoma; NCI-H460 lung; OVCAR-3 ovarian; RXF 393 renal; SK-MEL-2 melanoma; SK-OV-3 ovarian.
Common to all, as to test: NCI-60 cell line screen, 48 h

The structures appear in SMILES notation.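 Method: 48-hour compound exposure of cells in 96-well plates, five concentrations, linear interpolation of endpoints. The concentration for 50% growth inhibition is given as GI50. At the TGI there is no net growth.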

In the case of `CS(=O)(=O)c1ccc(Oc2cc(F)cc(C#N)c2)c2c1[C@H](O)C(F)(F)C2`, the GI50 in the experiment on BT-549 breast, with CAKI-1 renal, in the experiment with EKVX NSCLC, in the experiment with HCT-116 colon, in the experiment with LOX IMVI melanoma and in the experiment with NCI-H460 lung was over 100 µM throughout. For the same compound, the GI50 with OVCAR-3 ovarian, in the experiment with RXF 393 renal, in the experiment on SK-MEL-2 melanoma and with SK-OV-3 ovarian was over 100 µM throughout. The TGI with BT-549 breast, in the experiment with CAKI-1 renal, in the experiment on EKVX NSCLC, in the experiment on HCT-116 colon, in the experiment with LOX IMVI melanoma and in the experiment on NCI-H460 lung was over 100 µM in each case. The TGI in the experiment on OVCAR-3 ovarian, in the experiment with RXF 393 renal, in the experiment on SK-MEL-2 melanoma and in the experiment on SK-OV-3 ovarian was over 100 µM throughout.

Regarding `COc1ccc(OC)c(/C=C2\COc3ccc(O)c(O)c3C2=O)c1`, the GI50 in the experiment on BT-549 breast is 1.71 µM; in the experiment on CAKI-1 renal it was 2.08 µM; in the experiment with EKVX NSCLC, 3.26 µM; in the experiment with HCT-116 colon, 1.82 µM; in the experiment on LOX IMVI melanoma it was 1.48 µM; in the experiment with NCI-H460 lung, 2.07 µM. Moreover, the GI50 in the experiment with OVCAR-3 ovarian is 1.36 µM; in the experiment with RXF 393 renal, 1.83 µM; in the experiment on SK-MEL-2 melanoma, 2.84 µM; in the experiment on SK-OV-3 ovarian, 6.94 µM. In addition, the TGI worked out at 6.71 µM in the experiment on BT-549 breast; 5.73 µM in the experiment with CAKI-1 renal; 12.2 µM in the experiment with EKVX NSCLC; 4.13 µM in the experiment on HCT-116 colon; 3.02 µM with LOX IMVI melanoma; 5.61 µM in the experiment on NCI-H460 lung. Also, the TGI in the experiment with OVCAR-3 ovarian worked out at 5.31 µM; in the experiment with RXF 393 renal it was 3.58 µM; with SK-MEL-2 melanoma, 8.44 µM; in the experiment on SK-OV-3 ovarian, 22.5 µM.

Take `CCN(CC)CCCC(Cc1ccccc1)Nc1c2ccc(Cl)cc2nc2ccc(OC)cc12` (stereo not given): the GI50 in the experiment with BT-549 breast is 2.2 µM; in the experiment on CAKI-1 renal it was 2.1 µM; with EKVX NSCLC, 2.84 µM; with HCT-116 colon it was 1.95 µM; in the experiment with LOX IMVI melanoma it was 1.6 µM; with NCI-H460 lung, 2.44 µM. Moreover, the GI50 is 2.88 µM in the experiment with OVCAR-3 ovarian, 1.63 µM with RXF 393 renal, 1.79 µM with SK-MEL-2 melanoma and 4.09 µM with SK-OV-3 ovarian. Also, the TGI in the experiment with BT-549 breast was 5.17 µM; with CAKI-1 renal, 5.9 µM; with EKVX NSCLC, 10.5 µM; with HCT-116 colon, 10.7 µM; in the experiment with LOX IMVI melanoma it was 3.04 µM; with NCI-H460 lung, 5.92 µM. In addition, the TGI in the experiment on OVCAR-3 ovarian was determined as 12.2 µM; in the experiment on RXF 393 renal, 3.35 µM; in the experiment on SK-MEL-2 melanoma it was 3.46 µM; in the experiment on SK-OV-3 ovarian, 13.9 µM.

On to `Clc1ccc(C2=NN[C@H](c3cn(-c4ccccc4)nc3-c3ccccc3)C2)cc1`, for which the GI50 in the experiment with BT-549 breast was 10.3 µM; in the experiment with CAKI-1 renal, 10.4 µM; in the experiment on EKVX NSCLC, 3.16 µM; in the experiment with HCT-116 colon, 2.03 µM; in the experiment on LOX IMVI melanoma, 3.99 µM; in the experiment with NCI-H460 lung it was 4.22 µM. Also, the GI50 with OVCAR-3 ovarian is 2.54 µM; with RXF 393 renal, 2.48 µM; in the experiment on SK-MEL-2 melanoma it was 4.85 µM; in the experiment on SK-OV-3 ovarian, 2.74 µM. Besides, the TGI was determined as 28.4 µM in the experiment with BT-549 breast; 44.9 µM in the experiment with CAKI-1 renal; 18.8 µM with EKVX NSCLC; 4.01 µM with HCT-116 colon; 15.1 µM in the experiment on LOX IMVI melanoma; 16.9 µM with NCI-H460 lung. In addition, the TGI in the experiment on OVCAR-3 ovarian was 5.52 µM; in the experiment on RXF 393 renal it was 8.08 µM; in the experiment with SK-MEL-2 melanoma, 16.3 µM; with SK-OV-3 ovarian it was 8.75 µM.

On to `N=c1n(Cc2ccccc2)c(N)cc(=O)n1Cc1ccccc1`, for which the GI50 with BT-549 breast was 2.65 µM; in the experiment on CAKI-1 renal it was 2.94 µM; in the experiment on EKVX NSCLC, 2.12 µM; in the experiment on HCT-116 colon, 2.74 µM; in the experiment on LOX IMVI melanoma, 3.14 µM; in the experiment on NCI-H460 lung, 1.08 µM. Besides, the GI50 was 3.34 µM in the experiment with OVCAR-3 ovarian, 1.87 µM in the experiment on RXF 393 renal, 2.79 µM with SK-MEL-2 melanoma and 2.99 µM with SK-OV-3 ovarian. Moreover, the TGI in the experiment on BT-549 breast is 10.3 µM; with CAKI-1 renal it was 16.6 µM; in the experiment with EKVX NSCLC, 5.42 µM; with HCT-116 colon, 10.7 µM; in the experiment on LOX IMVI melanoma, 10.9 µM; with NCI-H460 lung it was 2.75 µM. Besides, the TGI with OVCAR-3 ovarian is 8.43 µM; with RXF 393 renal it was 5.71 µM; in the experiment on SK-MEL-2 melanoma it was 7.18 µM; with SK-OV-3 ovarian, 8.44 µM.

As for `COc1nc(N)nc2c1ncn2[C@@H]1O[C@H](CO)[C@@H](O)[C@@H]1O`, the GI50 in the experiment on BT-549 breast, in the experiment on CAKI-1 renal, with EKVX NSCLC, in the experiment with HCT-116 colon, in the experiment on LOX IMVI melanoma and in the experiment with NCI-H460 lung was over 100 µM each time. In addition, the GI50 in the experiment on OVCAR-3 ovarian, with RXF 393 renal, in the experiment on SK-MEL-2 melanoma and in the experiment with SK-OV-3 ovarian was over 100 µM each time. Moreover, the TGI in the experiment with BT-549 breast, in the experiment on CAKI-1 renal, in the experiment on EKVX NSCLC, in the experiment with HCT-116 colon, with LOX IMVI melanoma and with NCI-H460 lung was over 100 µM throughout. Further, the TGI in the experiment with OVCAR-3 ovarian, in the experiment on RXF 393 renal, with SK-MEL-2 melanoma and in the experiment with SK-OV-3 ovarian was over 100 µM throughout.

Consider `O=C(NCCNc1nccc(-c2c(-c3ccc(F)cc3)nc3sccn23)n1)c1ccccc1`, for which the GI50 is 14.3 µM with BT-549 breast; 2.48 µM with CAKI-1 renal; 7.51 µM in the experiment on EKVX NSCLC; 4.37 µM with HCT-116 colon; 4.3 µM in the experiment with LOX IMVI melanoma; 3.28 µM with NCI-H460 lung. The GI50 in the experiment on OVCAR-3 ovarian is 16.2 µM; in the experiment with RXF 393 renal, 6.19 µM; in the experiment on SK-MEL-2 melanoma it was 8.75 µM; with SK-OV-3 ovarian, 12.5 µM. Further, the TGI in the experiment with BT-549 breast is 34 µM; in the experiment with CAKI-1 renal, 25.1 µM; in the experiment with EKVX NSCLC, 56.1 µM; with HCT-116 colon, 35.8 µM; in the experiment on LOX IMVI melanoma, 31.4 µM; with NCI-H460 lung it was 22.3 µM. In addition, the TGI is over 100 µM with OVCAR-3 ovarian, 28.3 µM in the experiment on RXF 393 renal, 39.3 µM in the experiment on SK-MEL-2 melanoma and 53.8 µM with SK-OV-3 ovarian.

The values above are taken from PubChem BioAssay (NCI).
